From PubChem BioAssay AID256 (DTP/NCI, 2004) come the findings set out here.

Values joined by “and” are separate entries in the source; they are usually repeats but may differ in a detail not shown here. Equal entries are not always repeated. Toxic doses and inconclusive results are not listed.

In the test the test system is CD2F1 mice, L1210 leukemia ip, survival T/C. Briefly: NCI In Vivo Anticancer Drug Screen. Data for tumor model L1210 Leukemia (intraperitoneal) in CD2F1 (CDF1) mice. The settings on record: endpoint: mean survival time, higher = longer survival. The essentials: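 Vehicle-treated tumor-bearing mice served as controls (C) for compound-treated mice (T). Reported figure is T divided by C.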

The mark [1] stands for this setting: dose: 25.0 mg/kg/injection, schedule: Q01DX009 (ip), vehicle: Klucel (hydroxypropylcellulose) (HPC).
Setting [2] is: dose: 100.0 mg/kg/injection, schedule: Q01DX001 (ip), vehicle: saline.
Setting [3] is: dose: 200.0 mg/kg/injection, schedule: Q01DX001 (ip), vehicle: saline.
Where [4] appears, read: dose: 400.0 mg/kg/injection, schedule: Q01DX001 (ip), vehicle: saline.
Setting [5] is: dose: 100.0 mg/kg/injection, schedule: Q01DX009 (ip), vehicle: saline with Tween-80.
[6] abbreviates: dose: 200.0 mg/kg/injection, schedule: Q01DX009 (ip), vehicle: saline with Tween-80.
[7] abbreviates: dose: 50.0 mg/kg/injection, schedule: Q01DX009 (ip), vehicle: saline with Tween-80.
The mark [8] stands for this setting: dose: 100.0 mg/kg/injection, schedule: Q04DX003 (ip), vehicle: saline with Tween-80.
[9] abbreviates: dose: 200.0 mg/kg/injection, schedule: Q04DX003 (ip), vehicle: saline with Tween-80.
Setting [10] is: dose: 400.0 mg/kg/injection, schedule: Q04DX003 (ip), vehicle: saline with Tween-80.
[11] abbreviates: dose: 100.0 mg/kg/injection, schedule: Q04DX002 (ip), vehicle: saline with Tween-80.
Where [12] appears, read: dose: 100.0 mg/kg/injection, schedule: Q01DX001 (ip), vehicle: saline with Tween-80.
The mark [13] stands for this setting: dose: 200.0 mg/kg/injection, schedule: Q01DX001 (ip), vehicle: saline with Tween-80.
Setting [14] is: dose: 400.0 mg/kg/injection, schedule: Q01DX001 (ip), vehicle: saline with Tween-80.

Regarding `NNC(=O)c1ccc(-c2ccccc2)cc1`, the T/C runs as follows: (dose: 1.56 mg/kg/injection, schedule: Q01DX009 (ip), vehicle: Klucel (hydroxypropylcellulose) (HPC)) 100 % of control; (dose: 3.13 mg/kg/injection, schedule: Q01DX009 (ip), vehicle: Klucel (hydroxypropylcellulose) (HPC)) 98 % of control; (dose: 6.25 mg/kg/injection, schedule: Q01DX009 (ip), vehicle: Klucel (hydroxypropylcellulose) (HPC)) 96 % of control; (dose: 12.5 mg/kg/injection, schedule: Q01DX009 (ip), vehicle: Klucel (hydroxypropylcellulose) (HPC)) 102 % of control; under setting [1], 94 % of control; (dose: 25.0 mg/kg/injection, schedule: Q01DX009 (ip), vehicle: water) 108 % of control. The T/C is, setting by setting: (dose: 50.0 mg/kg/injection, schedule: Q01DX009 (ip), vehicle: water) 102 % of control; (dose: 100.0 mg/kg/injection, schedule: Q01DX009 (ip), vehicle: water) 100 % of control.
`CC1=CSC2=NC(=O)CCN12`: the T/C runs as follows: under setting [2], 93 % of control; under setting [3], 100 % of control; under setting [4], 90 % of control.
For the molecule `COC(=O)C(NC(=O)CCNC(=O)OCc1ccccc1)C(C)C` (configuration not stated), the T/C is, setting by setting: under setting [5], 95 % of control; under setting [6], 101 % of control.
Take `NC(N)=Nc1nc2ccccc2[nH]1`: the T/C was 104 % of control (dose: 7.0 mg/kg/injection, schedule: Q01DX009 (ip), vehicle: saline); 104 % of control (dose: 14.0 mg/kg/injection, schedule: Q01DX009 (ip), vehicle: saline); 98 % of control (dose: 28.0 mg/kg/injection, schedule: Q01DX009 (ip), vehicle: saline).
As to `CC(O)Cc1c(Cc2ccccc2)nc(-c2ccccc2)[nH]c1=O` (configuration not stated), the T/C is 91 % of control under setting [7]; 90 % of control under setting [5]; 95 % of control under setting [8]; 90 % of control under setting [9]; 88 % of control under setting [10].
For `COc1ccccc1NC(=O)Oc1ccc(-c2ccccc2)cc1Cl`, the T/C reads like this: under setting [11], 100 % of control; (dose: 200.0 mg/kg/injection, schedule: Q04DX002 (ip), vehicle: saline with Tween-80) 103 % of control; (dose: 400.0 mg/kg/injection, schedule: Q04DX002 (ip), vehicle: saline with Tween-80) 88 % of control.
With `CCOC(=O)C(C(=O)OCC)C(C)C`, the T/C reads like this: under setting [2], 97 % of control; under setting [3], 97 % of control; under setting [4], 110 % of control.
`c1ccc2c(NCCCCCCNc3c4ccccc4nc4ccccc34)c3ccccc3nc2c1`: the T/C is, setting by setting: (dose: 0.62 mg/kg/injection, schedule: Q01DX009 (ip), vehicle: Klucel (hydroxypropylcellulose) (HPC)) 103 % of control; (dose: 1.25 mg/kg/injection, schedule: Q01DX009 (ip), vehicle: Klucel (hydroxypropylcellulose) (HPC)) 114 % of control and 123 % of control and 111 % of control; (dose: 2.5 mg/kg/injection, schedule: Q01DX009 (ip), vehicle: Klucel (hydroxypropylcellulose) (HPC)) 115 % of control and 109 % of control; (dose: 5.0 mg/kg/injection, schedule: Q01DX009 (ip), vehicle: Klucel (hydroxypropylcellulose) (HPC)) 123 % of control and 111 % of control; (dose: 10.0 mg/kg/injection, schedule: Q01DX009 (ip), vehicle: Klucel (hydroxypropylcellulose) (HPC)) 111 % of control; (dose: 20.0 mg/kg/injection, schedule: Q01DX009 (ip), vehicle: Klucel (hydroxypropylcellulose) (HPC)) 104 % of control.
`CCc1cccc(CC)c1NC(=S)NN`: the T/C is 104 % of control (dose: 25.0 mg/kg/injection, schedule: Q04DX002 (ip), vehicle: saline with Tween-80); 96 % of control (dose: 50.0 mg/kg/injection, schedule: Q04DX002 (ip), vehicle: saline with Tween-80); 96 % of control under setting [11].
For the molecule `CCOC1OC(C(COC(C)=O)OC(C)=O)C(OC(C)=O)C(OC(C)=O)C1OC(C)=O` (configuration not stated), the T/C is 104 % of control under setting [12], 96 % of control under setting [13] and 101 % of control under setting [14].
`NC(=O)c1nn(C2OC(CO)C(O)C2O)c2ncnc(N)c12` (configuration not stated): the T/C is, setting by setting: under setting [1], 207 % of control; (dose: 50.0 mg/kg/injection, schedule: Q01DX009 (ip), vehicle: Klucel (hydroxypropylcellulose) (HPC)) 200 % of control.
As for `O=c1[nH]c(/C=C/C=C/c2ccccc2)c([N+](=O)[O-])c(=O)[nH]1`, the T/C (dose: 50.0 mg/kg/injection, schedule: Q04DX002 (ip), vehicle: Klucel (hydroxypropylcellulose) (HPC)) is 98 % of control; the T/C (dose: 100.0 mg/kg/injection, schedule: Q04DX002 (ip), vehicle: Klucel (hydroxypropylcellulose) (HPC)) is 91 % of control and 94 % of control; the T/C (dose: 200.0 mg/kg/injection, schedule: Q04DX002 (ip), vehicle: Klucel (hydroxypropylcellulose) (HPC)) is 88 % of control and 94 % of control; the T/C (dose: 400.0 mg/kg/injection, schedule: Q04DX002 (ip), vehicle: Klucel (hydroxypropylcellulose) (HPC)) was 98 % of control.
Consider `COc1ccc(-c2nc3ccc(C)cc3c(=O)o2)cc1`, for which the T/C by setting is: under setting [7], 89 % of control; under setting [5], 93 % of control; under setting [6], 89 % of control.
Regarding `CCc1cc(CC)c(CC)c(Br)c1CC`, the T/C is 98 % of control under setting [7], 108 % of control under setting [5], 98 % of control under setting [8] and 101 % of control under setting [9].
As for `O=c1[nH]c(/C=C/c2ccccc2)c([N+](=O)[O-])c(=O)[nH]1`, the T/C is 95 % of control under setting [12], 90 % of control under setting [13] and 90 % of control under setting [14].
For the molecule `O=C(Nn1c(=O)c(=O)oc2ccccc21)C(F)(F)F`, the T/C runs as follows: under setting [8], 96 % of control; under setting [9], 94 % of control.
On to `c1coc(-c2nc3ccccc3s2)c1`, for which the T/C was 96 % of control (dose: 50.0 mg/kg/injection, schedule: Q01DX001 (ip), vehicle: Klucel (hydroxypropylcellulose) (HPC)); 93 % of control and 95 % of control (dose: 100.0 mg/kg/injection, schedule: Q01DX001 (ip), vehicle: Klucel (hydroxypropylcellulose) (HPC)); 120 % of control and 90 % of control (dose: 200.0 mg/kg/injection, schedule: Q01DX001 (ip), vehicle: Klucel (hydroxypropylcellulose) (HPC)).
`CC1=Cc2ccc(C)cc2C(=O)C1=O`: the T/C (dose: 1.56 mg/kg/injection, schedule: Q04DX002 (ip), vehicle: saline with Tween-80) is 117 % of control and the T/C (dose: 3.13 mg/kg/injection, schedule: Q04DX002 (ip), vehicle: saline with Tween-80) is 106 % of control.
`CC(=O)CC(=O)C(F)(F)F.CC(=O)CC(=O)C(F)(F)F.CC(=O)CC(=O)C(F)(F)F.[Sm]`: the T/C is 95 % of control under setting [8], 100 % of control under setting [9] and 100 % of control under setting [10].
For `CCOC(=O)c1nc2c(n(O)c1=N)CCC/C2=N\O`, the T/C runs as follows: (dose: 100.0 mg/kg/injection, schedule: Q04DX003 (ip), vehicle: Klucel (hydroxypropylcellulose) (HPC)) 95 % of control; (dose: 200.0 mg/kg/injection, schedule: Q04DX003 (ip), vehicle: Klucel (hydroxypropylcellulose) (HPC)) 102 % of control; (dose: 400.0 mg/kg/injection, schedule: Q04DX003 (ip), vehicle: Klucel (hydroxypropylcellulose) (HPC)) 91 % of control.
Regarding `N#CCCc1c(O)ccc2ccccc12`, the T/C is 86 % of control under setting [8], 92 % of control under setting [9] and 86 % of control under setting [10].
On to `Cc1ccc(NC(=O)c2ccccc2)c(C)c1`, for which the T/C reads like this: under setting [5], 90 % of control; under setting [8], 92 % of control; under setting [6], 86 % of control; under setting [9], 92 % of control; under setting [10], 92 % of control.
In the case of `CN(C)N=Nc1ccc(Cl)cc1C(=O)O`, the T/C is 114 % of control (dose: 266.0 mg/kg/injection, schedule: Q04DX003 (ip), vehicle: other) and 120 % of control (dose: 400.0 mg/kg/injection, schedule: Q04DX003 (ip), vehicle: other).
Turning to `O=C1c2ccccc2C(=O)N1CBr`, the T/C was 100 % of control (dose: 12.5 mg/kg/injection, schedule: Q01DX009 (ip), vehicle: saline with Tween-80); 97 % of control (dose: 25.0 mg/kg/injection, schedule: Q01DX009 (ip), vehicle: saline with Tween-80); 98 % of control under setting [7].
For `CCN(CC)C(=O)/C=C/c1ccccc1`, the T/C by setting is: under setting [8], 103 % of control; under setting [9], 101 % of control; under setting [10], 103 % of control.
Regarding `CCC(O)C[As](=O)(O)c1ccc(Cl)cc1` (configuration not stated), the T/C reads like this: (dose: 0.38 mg/kg/injection, schedule: Q01DX009 (ip), vehicle: water) 98 % of control; (dose: 0.78 mg/kg/injection, schedule: Q01DX009 (ip), vehicle: water) 98 % of control; (dose: 1.5 mg/kg/injection, schedule: Q01DX009 (ip), vehicle: water) 94 % of control.
